This note sets out measurements from patent publication US9096615B2, “Bridged bicyclic amino thiazine dioxide compounds as inhibitors of beta-secretase and methods of use thereof” (AMGEN INC., priority 2013, dated 2015).

In assay [1] the target is T1, human Bace2 protein (Homo sapiens, UniProt Q9Y5Z0).
T1 construct: V5 (C); 6-His (C)
T1 sequence (Q9Y5Z0 63-518): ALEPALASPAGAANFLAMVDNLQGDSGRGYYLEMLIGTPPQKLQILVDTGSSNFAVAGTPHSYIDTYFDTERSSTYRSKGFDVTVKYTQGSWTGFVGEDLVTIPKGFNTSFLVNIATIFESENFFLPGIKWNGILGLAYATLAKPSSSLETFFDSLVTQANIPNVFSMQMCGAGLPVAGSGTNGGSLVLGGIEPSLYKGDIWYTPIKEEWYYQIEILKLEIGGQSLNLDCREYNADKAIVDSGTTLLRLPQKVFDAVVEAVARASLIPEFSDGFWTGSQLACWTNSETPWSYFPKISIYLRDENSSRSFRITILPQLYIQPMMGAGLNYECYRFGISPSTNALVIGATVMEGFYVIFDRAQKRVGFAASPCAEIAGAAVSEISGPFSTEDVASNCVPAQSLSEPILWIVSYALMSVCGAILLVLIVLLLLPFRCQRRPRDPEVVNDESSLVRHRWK
Kind of assay: In vitro enzymatic BACE2 FRET assay. The class given is biochemical. The settings on record: average IC50; read-out: BACE2 Enzyme assay IC50. Put shortly: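 Human Bace2 with C-terminal V5/6-His tag (0.2 nM) pre-incubated 1 h with inhibitor in 0.05 M acetate pH 4.2, 10% DMSO, 100 uM genapol; reaction started with 50 nM FRET peptide substrate, run 1 h. Stopped with Tris to neutral pH; fluorescence increase from substrate cleavage measured.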

Assay [2] concerns Abeta 40. Kind of assay: In vivo inhibition of beta-secretase: percent Abeta 40 reduction in CSF and brain. Also noted: species or system rat. The settings on record: after 4 hrs; for inhibition in vivo at 10 mg/kg: 10 mpk. Put shortly:
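Test compound was given by oral gavage in 2% HPMC, 1% Tween80, pH 2.2 (e.g., 30 mg/kg to male Sprague Dawley rats), or IV in 5% EtOH/45% propylene glycol in 5% dextrose. Four hours later, Abeta40 in CSF and in brain homogenate (DEA or Triton extraction) was measured by ECL sandwich ELISA (4G8 capture, Fab40 detection). Reduction is expressed relative to vehicle-treated animals.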

Where [3] appears, read: Abeta 40, rat CSF, read-out: % reduction of rat CSF levels at 10 pmk.
The mark [4] stands for this setting: Abeta 40, rat brain, read-out: % reduction of rat brain levels at 10 mpk.

Read-outs that look alike come from different tables or passages of the source.

Consider `C[C@]1(c2cc(Nc3ncnc4cc(C#N)cnc34)ccc2F)N=C(N)[C@@]2(CF)CC[C@@H]1S2(=O)=O` [Example 40, 4-((3-((1S,2R,5R)-4-amino-5-(fluoromethyl)-2-methyl-8,8-dioxido-8-thia-3-azabicyclo[3.2.1]oct-3-en-2-yl)-4-fluorophenyl)amino)pyrido[3,2-d]pyrimidine-7-carbonitrile], for which the IC50 (commonly the concentration that gives 50% inhibition) in assay [1] is 22 nM. The inhibition in vivo at 10 mg/kg in assay [2] (setting [3]) stood at 59%; in assay [2] (setting [4]), 24%.

Take `Cc1cc(C#N)cnc1C(=O)Nc1ccc(F)c([C@@]2(C)N=C(N)[C@@]3(CF)CC[C@@H]2S3(=O)=O)c1` [Example 96, N-(3-((1S,2R,5R)-4-amino-5-(fluoromethyl)-2-methyl-8,8-dioxido-8-thia-3-azabicyclo[3.2.1]oct-3-en-2-yl)-4-fluorophenyl)-5-cyano-3-methyl-2-pyridinecarboxamide]: the IC50 in assay [1] was 1 nM. The “% reduction of rat CSF levels (3 mpk)” value in assay [2] (Abeta 40, rat CSF, 3 mpk) is 60 (3 mpk) %. Further, the “% reduction of rat brain levels (3 mpk)” value in assay [2] (Abeta 40, rat brain, 3 mpk) is listed as 39 (3 mpk) %.

As to `COc1cnc2c(Nc3ccc(F)c([C@@]4(C)N=C(N)[C@@]5(C)CC[C@@H]4S5(=O)=O)c3)ncc(F)c2c1` [Example 78, N-(3-((1S,2R,5R)-4-amino-2,5-dimethyl-8,8-dioxido-8-thia-3-azabicyclo[3.2.1]oct-3-en-2-yl)-4-fluorophenyl)-5-fluoro-3-methoxy-1,7-naphthyridin-8-amine], the IC50 in assay [1] amounted to 5 nM. Besides, the inhibition in vivo at 10 mg/kg was 52% in assay [2] (setting [3]) and 46% in assay [2] (setting [4]).

As to `COc1cnc2c(Nc3ccc(F)c([C@@]4(C)N=C(N)[C@@]5(CF)CC[C@@H]4S5(=O)=O)c3)nccc2n1` [Example 41, N-(3-((1S,2R,5R)-4-amino-5-(fluoromethyl)-2-methyl-8,8-dioxido-8-thia-3-azabicyclo[3.2.1]oct-3-en-2-yl)-4-fluorophenyl)-2-methoxypyrido[3,4-b]pyrazin-5-amine], the IC50 in assay [1] was determined as 10 nM. Moreover, the inhibition in vivo at 10 mg/kg in assay [2] (setting [3]) turned out to be 76%; in assay [2] (setting [4]) it was 62%.

Consider `C[C@]1(c2cc(Nc3nccc4cc(C#N)cnc34)ccc2F)N=C(N)[C@@]2(CF)CC[C@@H]1S2(=O)=O` [Example 100, 8-((3-((1S,2R,5R)-4-amino-5-(fluoromethyl)-2-methyl-8,8-dioxido-8-thia-3-azabicyclo[3.2.1]oct-3-en-2-yl)-4-fluorophenyl)amino)-1,7-naphthyridine-3-carbonitrile], for which, in assay [1], the IC50 turned out to be 0.6 nM. For the same compound, the values for the inhibition in vivo at 10 mg/kg in assay [2] (setting [3]) and in assay [2] (setting [4]) were 67% and 59%, respectively.

With `COc1cnc(C(=O)Nc2ccc(F)c([C@@]3(C)N=C(N)[C@@]4(C)CC[C@@H]3S4(=O)=O)c2)cn1` [Example 61, N-(3-((1S,2R,5R)-4-amino-2,5-dimethyl-8,8-dioxido-8-thia-3-azabicyclo[3.2.1]oct-3-en-2-yl)-4-fluorophenyl)-5-methoxy-2-pyrazinecarboxamide], the IC50 in assay [1] was 7 nM. For the same compound, the inhibition in vivo at 10 mg/kg in assay [2] (setting [3]) was found to be 80%; in assay [2] (setting [4]), 79%.

As to `C#CCOc1ccc(C(=O)Nc2ccc(F)c([C@@]3(C)N=C(N)[C@@]4(CF)CC[C@@H]3S4(=O)=O)c2)nc1` [Example 52, N-(3-((1S,2R,5R)-4-amino-5-(fluoromethyl)-2-methyl-8,8-dioxido-8-thia-3-azabicyclo[3.2.1]oct-3-en-2-yl)-4-fluorophenyl)-5-(2-propyn-1-yloxy)-2-pyridinecarboxamide], the IC50 in assay [1] was found to be 18 nM. The inhibition in vivo at 10 mg/kg was found to be 67% in assay [2] (setting [3]) and 62% in assay [2] (setting [4]).

Regarding `Cc1cc(OC(F)F)cnc1C(=O)Nc1ccc(F)c([C@@]2(C)N=C(N)[C@@]3(CF)CC[C@@H]2S3(=O)=O)c1` [Example 102, N-(3-((1S,2R,5R)-4-amino-5-(fluoromethyl)-2-methyl-8,8-dioxido-8-thia-3-azabicyclo[3.2.1]oct-3-en-2-yl)-4-fluorophenyl)-5-(difluoromethoxy)-3-methyl-2-pyridinecarboxamide], the IC50 in assay [1] amounted to 8 nM. Further, the inhibition in vivo at 10 mg/kg in assay [2] (setting [3]) came out at 67%; in assay [2] (setting [4]) it was 68%.
